Data reported in US20250152734A1, “USES AND FORMULATIONS OF CAMPTOTHECIN (CPT)-CONTAINING NANOPARTICLES” (DANTARI, INC., priority 2022, published 2025).

Test: Tolerability of CPT in 3-week mouse xenograft studies (ER2019-09-1B, ER2019-09-1C)
Format: in vivo
Description: This value is determined from the calculated free and total CPT concentrations in the sample. The “% free of total CPT” value provides the clearest indicator of drug substance stability during storage and use. […] The release specification for % free of total CPT in the drug substance is ≤3%. The stability specification for % free of total CPT in the drug substance is ≤5%. These limits are well below prior studies using CPT administered directly as a free drug. In two separate 3-week mouse xenograft studies (ER2019-09-1B, ER2019-09-1C) CPT itself was dosed and well-tolerated at 3 mg/kg which has a human equivalent dose of 9 mg CPT/m2.

SMILES: CC[C@@]1(O)C(=O)OCc2c1cc1n(c2=O)Cc2cc3ccccc3nc2-1 [CPT, 20 (S)-camptothecin]
- well-tolerated dose (3-week mouse xenograft studies): 3 mg/kg
- human equivalent dose of tolerated dose (mouse, in vivo): 9 mg CPT/m2
